Test results from patent US20060116419A1, “Nf-kb inhibitors” (priority 2002, published 2006).

Tests used:
IKK-β = target: T1, IKK-β (Homo sapiens, UniProt O14920); experiment: IKK-β kinase assay (phosphorylation of N-terminal fragment of IκB-α); type: biochemical
T1 construct: GST; made in house
T1 sequence (O14920 1-756): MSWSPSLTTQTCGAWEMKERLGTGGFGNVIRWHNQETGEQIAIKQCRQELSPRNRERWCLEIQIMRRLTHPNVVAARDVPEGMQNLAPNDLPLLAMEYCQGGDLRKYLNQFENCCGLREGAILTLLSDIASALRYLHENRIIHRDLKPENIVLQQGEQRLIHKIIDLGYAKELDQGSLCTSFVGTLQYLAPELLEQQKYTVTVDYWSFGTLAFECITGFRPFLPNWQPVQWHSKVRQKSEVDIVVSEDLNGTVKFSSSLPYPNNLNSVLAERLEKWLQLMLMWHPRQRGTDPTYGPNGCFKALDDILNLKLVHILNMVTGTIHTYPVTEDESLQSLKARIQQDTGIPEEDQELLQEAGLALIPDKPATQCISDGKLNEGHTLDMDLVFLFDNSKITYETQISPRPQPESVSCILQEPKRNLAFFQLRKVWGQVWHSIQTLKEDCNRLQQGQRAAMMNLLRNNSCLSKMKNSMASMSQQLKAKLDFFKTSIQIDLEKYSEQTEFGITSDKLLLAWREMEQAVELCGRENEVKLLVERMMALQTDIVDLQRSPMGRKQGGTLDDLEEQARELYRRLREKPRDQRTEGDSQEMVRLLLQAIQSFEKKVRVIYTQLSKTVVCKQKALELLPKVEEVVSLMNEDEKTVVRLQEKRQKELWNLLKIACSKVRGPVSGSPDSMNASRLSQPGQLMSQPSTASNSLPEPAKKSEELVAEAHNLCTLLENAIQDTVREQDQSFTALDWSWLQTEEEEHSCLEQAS
Experimental: IKK-β was expressed as a GST-tagged protein, and its activity was assessed in a 96-well scintillation proximity assay (SPA). Briefly, IKK-β was diluted in assay buffer as described above (20 nM final), with various concentrations of compound or DMSO vehicle, 240 nM ATP and 200 nCi [γ-^33P]-ATP (10 mCi/mL, 2000 Ci/mmol; NEN Life Science Products, Boston, Mass.). The reaction was started with the addition of a biotinylated peptide comprising amino acids 15-46 of IκB-α (American Peptide) to a final concentration of 2.4 μM, in a total volume of 50 uL. The sample incubated for one hour a 30° C., followed by the addition of 150 uL of stop buffer (PBS w/o Ca^2+, Mg^2+, 0.1% Triton X-100 (v/v), 10 mM EDTA) containing 0.2 mg streptavidin-coated SPA PVT beads (Amersham Pharmacia Biotech, Piscataway, N.J.). The sample was mixed, incubated for 10 min. at room temperature, centrifuged (1000×g, 2 minutes), and measured on a Hewlett-Packard TopCount.

IκB-α = experiment: Degradation of IκB-α in cells activated with pro-inflammatory stimuli (Western blot); type: cell-based; settings: human monocytes and other mammalian cells; activation with pro-inflammatory stimuli (e.g. TNF-α, LPS)
Experimental: NF-κB activity may also be measured in an electrophoretic mobility shift assay (EMSA) to assess the presence of NF-κB protein in the nucleus. The cells of interest are cultured to a density of 1×10^6/mL. The cells are harvested by centrifugation, washed in PBS without Ca^2+ and Mg^2+ and resuspended in PBS with Ca^2+ and Mg^2+ at 1×10^7 cells/mL. To examine the effect of compound on the activation of NF-κB, the cell suspensions are treated with various concentrations of drug or vehicle (DMSO, 0.1%) for 30 min. at 37° C. prior to stimulation with TNF-α (5.0 ng/mL) for an additional 15 min. Cellular and nuclear extracts are prepared follows. Briefly, at the end of the incubation period the cells (1×10^7 cells) are washed 2× in PBS without Ca^2+ and Mg^2+. The resulting cell pellets are resuspended in 20 uL of Buffer A (10 mM Hepes (pH 7.9), 10 mM KCl, 1.5 mM MgCl2, 0.5 mM dithiothreitol (DTT) and 0.1% NP-40) and incubated on ice for 10 min. […] All samples are stored at −80° C. until analyzed. The protein concentration of the extracts is determined according to the method of Bradford (Bradford, 1976) with BioRad reagents.
The effect of compounds on the phosphorylation of IκB may be monitored in a Western blot. […] Immunoreactive bands are detected using the Enchanced Chemiluminescence (ECL) assay system (Amersham Corp., Arlington Heights, Ill.).

NF-κB = experiment: Nuclear translocation of NF-κB in activated cells (EMSA); type: cell-based; settings: human monocytes and other mammalian cells; activation with pro-inflammatory stimuli (e.g. TNF-α, LPS)
Experimental: NF-κB activity may also be measured in an electrophoretic mobility shift assay (EMSA) to assess the presence of NF-κB protein in the nucleus. The cells of interest are cultured to a density of 1×10^6/mL. The cells are harvested by centrifugation, washed in PBS without Ca^2+ and Mg^2+ and resuspended in PBS with Ca^2+ and Mg^2+ at 1×10^7 cells/mL. To examine the effect of compound on the activation of NF-κB, the cell suspensions are treated with various concentrations of drug or vehicle (DMSO, 0.1%) for 30 min. at 37° C. prior to stimulation with TNF-α (5.0 ng/mL) for an additional 15 min. Cellular and nuclear extracts are prepared follows. Briefly, at the end of the incubation period the cells (1×10^7 cells) are washed 2× in PBS without Ca^2+ and Mg^2+. The resulting cell pellets are resuspended in 20 uL of Buffer A (10 mM Hepes (pH 7.9), 10 mM KCl, 1.5 mM MgCl2, 0.5 mM dithiothreitol (DTT) and 0.1% NP-40) and incubated on ice for 10 min. The nuclei are pelleted by microcentrifugation at 3500 rpm for 10 min at 4° C. […] All samples are stored at −80° C. until analyzed. The protein concentration of the extracts is determined according to the method of Bradford (Bradford, 1976) with BioRad reagents.
The effect of compounds on transcription factor activation is assessed in an electrophoretic mobility shift assay (EMSA) using nuclear extracts from treated cells as described above. […]

[1] = system: LPS-stimulated human monocytes; experiment: Pro-inflammatory mediator production from LPS-stimulated human monocytes; type: cell-based
Experimental: (§1) Effect of IKK-β inhibition on human monocyte stimulated eicosanoid and cytokine production was assessed as follows: Monocytes were isolated from heparinized whole blood by double gradient centrifugation as previously described. Isolated monocyte enriched PBMCs were then adhered to 24 well culture plates at 2×10^6 cells/mL in RPMI 1640 10% FBS (Hyclone, Logan, Utah) for 2 h. to further enrich the monocyte population. The media was then removed, cells washed once with RPMI 1640, and 1 mL RPMI 1640 10% FBS was added to the wells. Test compounds are added to the wells with a final vehicle concentration of 0.05% DMSO. Monocytes were activated by the addition of 200 ng/mL endotoxin (LPS; E. coli serotype 026:B6)(Sigma, St. Louis, Mo.) and incubated for 24 hrs. Cell-free supernates were analyzed by ELISA for TNF-α (EIA developed at SB), PGE2 (Cayman Chemical, Ann Arbor, Mich.), and IL-8 and IL-6 Biosource International, Camarillo, Calif.). Viability of the cells was determined by trypan blue exclusion.

[2] = system: human primary synovial fibroblasts; experiment: Mediator production by stimulated human primary synovial fibroblasts; type: cell-based
Experimental: The effect of IKK-β inhibitors on primary synovial fibroblast mediator production was assesses as follows: Primary cultures of human RSF were obtained by enzymatic digestion of synovium obtained from adult patients with rheumatoid arthritis as previously described (Roshak et al., 1996b). Cells were cultured in Earl's Minimal Essential Medium (EMEM) which contained 10% fetal bovine serum (FBS), 100 units/ml penicillin and 100 μg/ml streptomycin (GIBCO, Grand Island, N.Y.), at 37° C. and 5% CO2. Cultures were used at passages 4 through 9 in order to obtain a more uniform type B fibroblast population. For some studies, fibroblasts were plated at 5×10^4 cells/mL in 16 mm (diameter) 24 well plates (Costar, Cambridge, Mass.). Cells (70-80% confluence) were exposed to IL-1β (1 ng/mL) (Genzyme, Cambridge, Mass.) for the designated time. Drugs in DMSO vehicle (1%) were added to the cell cultures 15 minutes prior to the addition of IL-1. Studies were conducted 3-4 times using synovial cells from different donors. RSF cellular extracts were prepared from cells treated as described above. Briefly, human RSF were removed by trypsin/EDTA, washed, and harvested by centrifugation. Cellular extracts were prepared as previously described (Dignam et al., 1983; Osborn, et al., 1989). Briefly, at the end of the incubation period the cells (1×10^7 cells) were washed 2× in PBS without Ca^2+ and Mg^2+. […]

[3] = Oral bioavailability in rat; type: in vivo
[4] = Oral bioavailability in mouse; type: in vivo
[5] = In vivo DMPK profile in preclinical species; settings: preclinical species tested, compared with analog lacking the 4′-F group
IL-8 production = experiment: Inhibition of IL-8 production through inhibition of NF-κB; type: cell-based; settings: through the inhibition of NF-κB
Experimental: as §1

NC(=O)Nc1sc(-c2ccc(F)cc2)cc1C(N)=O [Formula I, 5-(4-fluoro-phenyl)-2-ureido-thiophene-3-carboxylic acid amide]
inhibition of phosphorylation of the N-terminal fragment of IκB-α by IKK-β (IKK-β): inhibit the phosphorylation of the N-terminal fragment of IκB-α by IKK-β
IKK-2 inhibitory activity relative to the analog lacking the 4′-F group (IKK-β; compared with analog lacking the 4′-F group): comparable IKK-2 inhibitory activity
degradation of IκB-α (IκB-α): blocks the degradation of IκB-α
nuclear translocation of NF-κB (NF-κB): blocks
pro-inflammatory mediator production [1]: inhibits pro-inflammatory mediator production
pro-inflammatory mediator production [2]: inhibits pro-inflammatory mediator production
oral bioavailability [3]: orally bioavailable
oral bioavailability [4]: orally bioavailable
DMPK profile relative to the analog lacking the 4′-F group [5]: significantly improved DMPK profile
inhibition of IL-8 production (IL-8 production): has been demonstrated
